Reference: patent US20100173025A1, “FAT ABSORPTION INHIBITORY COMPOSITION” (NISSHIN PHARMA INC., priority 2007, published 2010)

Tested on: lipase (produced by Sigma)
Assay: Determination of lipase inhibitory activity (olive oil substrate emulsion, copper reagent, absorbance at 480 nm)
Format: biochemical
Details: 37° C., 30 minutes
Procedure: Ten micro litter of a solution containing the composition of the present invention obtained in Example 2 or 3 (diluted with a buffer to a final concentration of 0.01 or 0.1 mg/mL) or 10 μL of a solution containing the composition of the present invention obtained in Example 4 (at a final concentration of 1 mg/mL) was added to 80 μL, of a substrate emulsion (3.0 g of obtained by adding olive oil to 100 mL of a buffer described below, followed by sonication). The resultant was allowed to stand at 37° C. for 10 minutes. Ten micro litter of a lipase solution (diluted with a buffer to a concentration of lipase (produced by Sigma) of 1.0 mg/mL) was added thereto. The mixture was reacted with an enzyme reaction at 37° C. for 30 minutes. […] A coloring solution was added to the supernatant for determination of an absorbance at 480 nm. […] Results were calculated by Equation 1 described below with absorbance of the following: the composition of the present invention; a blank replaced the lipase solution with a buffer; and a control replaced a solution containing the composition of the present invention with a buffer. […]
Inhibition rate (%)=[1−[absorbance of the composition of the present invention−blank absorbance]/[control absorbance−blank absorbance]]

Substance: purothionin [Positive control]
- Lipase inhibition rate (final concentration 0.1 mg/mL): 76%
- Lipase inhibition rate (final concentration 1 mg/mL): 96%
